Experimental data from US20140051679A1, “KINASE INHIBITORS AND METHOD OF TREATING CANCER WITH SAME” (UNIVERISTY HEALTH NETWORKS, priority 2011, published 2014).

Legend:
Assay type in all cases: biochemical
[1] = biological target: T1, Aurora B (Homo sapiens, UniProt Q96GD4); assay: Aurora B inhibition assay (Z-Lyte); conditions: 28 nM Aurora B, 128 μM ATP; read-out: IC50 Ranges Aurora B
T1 construct: purchased Invitrogen PV3970
Description: Aurora B inhibition was determined using the Z-Lyte assay kit from Invitrogen. The assay was performed using the recommended manufacturer's instructions with 128 μM ATP and 28 nM Aurora B (Invitrogen cat #PV3970). The % inhibition values were determined according to the manufacturer's directions and IC50 values were obtained using a non-linear 4 point logistic curve fit (XLfit4, IDBS)

[2] = biological target: T2, human PLK4 (Homo sapiens, UniProt O00444); assay: PLK4 inhibition assay (indirect ELISA); conditions: GST-PLK4 4 nM, 15 μM ATP; read-out: IC50 Ranges PLK4
T2 construct: amino terminal GST fusion of residues 1-391 of human PLK4; made in house; host or cells: E. coli
T2 sequence (O00444 1-391): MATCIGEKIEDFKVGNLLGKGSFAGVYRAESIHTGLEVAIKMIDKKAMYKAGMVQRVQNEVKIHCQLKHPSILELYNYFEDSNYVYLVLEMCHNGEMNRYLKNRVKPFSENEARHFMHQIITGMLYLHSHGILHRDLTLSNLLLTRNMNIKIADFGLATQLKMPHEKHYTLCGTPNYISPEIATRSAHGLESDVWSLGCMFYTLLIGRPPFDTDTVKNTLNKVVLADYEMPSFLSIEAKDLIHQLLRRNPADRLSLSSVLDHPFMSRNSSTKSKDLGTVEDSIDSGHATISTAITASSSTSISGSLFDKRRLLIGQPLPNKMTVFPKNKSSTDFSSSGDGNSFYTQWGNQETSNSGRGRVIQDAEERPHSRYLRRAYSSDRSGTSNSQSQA
Description: Active PLK4 was purified from an E. coli expression system as an amino terminal GST fusion of residues 1-391 of human PLK4. The protein was purified from clarified cell extracts after induction at 15° C. overnight using glutathione sepharose, gel permeation chromatography, and ion exchange (Resource Q). The resulting protein was dephosphorylated with lambda phosphatase (NEB cat#P0753), and resolved from the phosphatase using gluthione sepharose. The dephosphorylated GST-PLK4 was stored in aliquots at −80° C. until use.
PLK4 activity was measured using an indirect ELISA detection system. GST-PLK4 (4 nM) was incubated in the presence of 15 μM ATP (Sigma cat#A7699), 50 mM HEPES-Na^2+ pH 7.5, 10 mM MgCl2, 0.01% Brij 35 (Sigma cat#03-3170), in a 96 well microtitre plate pre-coated with MBP (Millipore cat#30-011). The reaction was allowed to proceed for 30 minutes, followed by 5 washes of the plate with Wash Buffer (phosphate buffered saline supplemented with 0.2% Tween 20), and incubation for 30 minutes with a 1:3000 dilution of primary antibody (Cell Signaling cat#9381). The plate was washed 5 times with Wash Buffer, incubated for 30 minutes in the presence of secondary antibody coupled to horse radish peroxidase (BioRad cat#1721019, 1:3000 concentration), washed an additional 5 times with Wash Buffer, and incubated in the presence of TMB substrate (Sigma cat#T0440). The colourimetric reaction was allowed to continue for 5 minutes, followed by addition of stop solution (0.5 N sulphuric acid), and quantified by detection at 450 nm with either a monochromatic or filter based plate reader (Molecular Devices M5 or Beckman DTX880, respectively).
Compound inhibition was determined at either a fixed concentration (10 μM) or at a variable inhibitor concentration (typically 0.5 μM to 0.001 μM in a 10 point dose response titration). Compounds were pre-incubated in the presence of enzyme for 15 minutes prior to addition of ATP and the activity remaining quantified using the above described activity assay. The % Inhibition of a compound was determined using the following formula; % Inhibition=100×(1-(experimental value−background value)/(high activity control−background value)). The IC50 value was determined using a non-linear 4 point logistic curve fit (XLfit4, IDBS) with the formula; (A+(B/(1+((x/C)̂D)))), where A=background value, B=range, C=inflection point, D=curve fit parameter.

[3] = biological target: T3, human TTK (Homo sapiens, UniProt P33981); assay: TTK inhibition assay (indirect ELISA); conditions: GST-TTK 0.68 nM, 16 μM ATP; read-out: IC50 Ranges TTK
T3 construct: amino terminal GST fusion of full length human TTK; purchased Invitrogen
T3 sequence (P33981 1-857): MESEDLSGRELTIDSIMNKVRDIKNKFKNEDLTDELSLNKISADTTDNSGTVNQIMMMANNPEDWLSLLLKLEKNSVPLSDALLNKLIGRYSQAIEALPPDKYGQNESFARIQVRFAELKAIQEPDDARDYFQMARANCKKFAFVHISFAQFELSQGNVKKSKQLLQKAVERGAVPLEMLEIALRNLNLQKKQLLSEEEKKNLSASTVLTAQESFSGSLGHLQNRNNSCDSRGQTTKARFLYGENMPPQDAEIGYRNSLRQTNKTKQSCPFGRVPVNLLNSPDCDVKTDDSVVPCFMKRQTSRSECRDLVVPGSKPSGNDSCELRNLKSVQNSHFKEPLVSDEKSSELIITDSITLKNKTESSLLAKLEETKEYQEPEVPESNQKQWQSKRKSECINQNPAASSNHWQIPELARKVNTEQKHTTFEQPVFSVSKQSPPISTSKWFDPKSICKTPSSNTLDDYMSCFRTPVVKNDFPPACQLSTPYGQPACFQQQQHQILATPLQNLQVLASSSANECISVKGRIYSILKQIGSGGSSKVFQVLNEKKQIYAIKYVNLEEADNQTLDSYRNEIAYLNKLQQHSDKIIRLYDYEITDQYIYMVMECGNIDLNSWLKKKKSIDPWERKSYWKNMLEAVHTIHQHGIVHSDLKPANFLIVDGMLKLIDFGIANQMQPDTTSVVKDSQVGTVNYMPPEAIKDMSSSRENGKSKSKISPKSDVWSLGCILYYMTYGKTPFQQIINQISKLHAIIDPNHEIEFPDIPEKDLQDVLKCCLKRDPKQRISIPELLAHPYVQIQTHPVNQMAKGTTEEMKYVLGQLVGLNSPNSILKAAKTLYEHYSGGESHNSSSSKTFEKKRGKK

T1 sequence (Q96GD4 whole entry): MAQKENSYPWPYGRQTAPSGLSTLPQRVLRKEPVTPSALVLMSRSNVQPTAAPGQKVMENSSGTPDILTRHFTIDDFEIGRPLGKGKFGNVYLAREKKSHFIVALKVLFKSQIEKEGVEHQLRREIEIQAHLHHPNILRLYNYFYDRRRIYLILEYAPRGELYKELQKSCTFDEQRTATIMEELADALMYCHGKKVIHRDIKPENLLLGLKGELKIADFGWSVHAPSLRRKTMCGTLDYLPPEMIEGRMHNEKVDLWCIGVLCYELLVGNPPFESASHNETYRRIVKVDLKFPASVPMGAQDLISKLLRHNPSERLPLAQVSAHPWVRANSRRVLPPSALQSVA

| IC50 [1] | IC50 [2] | IC50 [3] | Structure (SMILES) |
| --- | --- | --- | --- |
| ≤ 5 µM | ≤ 5 µM |  | CN1CCC(Oc2ccc(-c3n[nH]c4ccc(NC(=O)C(c5ccsc5)N5CCCC5)cc34)cc2)CC1 (centres unmarked) [Example A7, N-(3-(4-((1-methylpiperidin-4-yl)oxy)phenyl)-1H-indazol-5-yl)-2-(pyrrolidin-1-yl)-2-(thiophen-3-yl)acetamide] |
| ≤ 5 µM | ≤ 5 µM |  | O=C(Nc1ccc2[nH]nc(-c3ccc(N4CCC(O)CC4)cc3)c2c1)C(c1ccsc1)N1CCCC1 (centres unmarked) [Example A9, N-(3-(4-(4-hydroxypiperidin-1-yl)phenyl)-1H-indazol-5-yl)-2-(pyrrolidin-1-yl)-2-(thiophen-3-yl)acetamide] |
| ≤ 5 µM | ≤ 5 µM |  | CN1CCC(Oc2ccc(-c3n[nH]c4ccc(C(=O)NC(c5ccccc5)C5CC5)cc34)cc2)CC1 (centres unmarked) [Example A24, N-(cyclopropyl(phenyl)methyl)-3-(4-((1-methylpiperidin-4-yl)oxy)phenyl)-1H-indazole-5-carboxamide] |
| ≤ 5 µM | ≤ 5 µM |  | CN1CCC(Oc2ccc(-c3n[nH]c4ccc(C(=O)N[C@H](c5ccccc5)C5CC5)cc34)cc2)CC1 [Example A42, (S)—N-(cyclopropyl(phenyl)methyl)-3-(4-((1-methylpiperidin-4-yl)oxy)phenyl)-1H-indazole-5-carboxamide] |
|  | ≤ 5 µM | ≤ 5 µM | CCN(C(=O)Nc1ccc2[nH]nc(-c3ccc(N4CCOCC4)cc3)c2c1)c1ccccc1 [Example A72, 1-ethyl-3-(3-(4-morpholinophenyl)-1H-indazol-5-yl)-1-phenylurea] |
|  | ≤ 5 µM | ≤ 5 µM | CN1CCN(c2ccc(-c3n[nH]c4ccc(NC(=O)C(c5ccsc5)N5CCCC5)cc34)cc2)C(=O)C1 (centres unmarked) [Example A94, N-(3-(4-(4-Methyl-2-oxopiperazin-1-yl)phenyl)-1H-indazol-5-yl)-2-(pyrrolidin-1-yl)-2-(thiophen-3-yl)acetamide] |
| ≤ 5 µM | ≤ 5 µM |  | O=C(NC(c1ccsc1)C1CC1)c1ccc2[nH]nc(-c3ccc(N4CCC(O)CC4)cc3)c2c1 (centres unmarked) [Example A101, N-(cyclopropyl(thiophen-3-yl)methyl)-3-(4-(4-hydroxypiperidin-1-yl)phenyl)-1H-indazole-5-carboxamide] |
| ≤ 5 µM | ≤ 5 µM |  | CN(C)CC(=O)N1CCC(Oc2ccc(-c3n[nH]c4ccc(C(=O)NC(c5ccccc5)C5CC5)cc34)cc2)CC1 (centres unmarked) [Example A130, N-(cyclopropyl(phenyl)methyl)-3-(4-((1-(2-(dimethylamino)acetyl)piperidin-4-yl)oxy)phenyl)-1H-indazole-5-carboxamide] |
| ≤ 5 µM | ≤ 5 µM |  | CC[C@@H](NC(=O)c1ccc2[nH]nc(-c3ccc(OC4CCN(C)CC4)cc3)c2c1)c1ccccc1Cl [Example A131, (R)—N-(1-(2-chlorophenyl)propyl)-3-(4-((1-methylpiperidin-4-yl)oxy)phenyl)-1H-indazole-5-carboxamide] |
| ≤ 5 µM | ≤ 5 µM |  | CN1CCC(Oc2ccc(-c3n[nH]c4ccc(NC(=O)C(c5ccccn5)C5CCCC5)cc34)cc2)CC1 (centres unmarked) [Example A179, 2-cyclopentyl-N-(3-(4-((1-methylpiperidin-4-yl)oxy)phenyl)-1H-indazol-5-yl)-2-(pyridin-2-yl)acetamide] |
| ≤ 5 µM | ≤ 5 µM | ≤ 5 µM | COc1cc(-c2n[nH]c3ccc(C(=O)NC(c4ccccn4)C4CC4)cc23)ccc1OC1CCN(C=O)CC1 (centres unmarked) [Example A206, N-(cyclopropyl(pyridin-2-yl)methyl)-3-(4-((1-formylpiperidin-4-yl)oxy)-3-methoxyphenyl)-1H-indazole-5-carboxamide] |
| ≤ 5 µM | ≤ 5 µM | ≤ 5 µM | CN1CCC(Oc2ccc(-c3n[nH]c4ccc(C(=O)NCC(c5ccccc5)C5CCCC5)cc34)cc2)CC1 (centres unmarked) [Example A207, N-(2-cyclopentyl-2-phenylethyl)-3-(4-((1-methylpiperidin-4-yl)oxy)phenyl)-1H-indazole-5-carboxamide] |
| ≤ 5 µM | ≤ 5 µM |  | CN1CCC(Oc2ccc(-c3n[nH]c4ccc(C(=O)NC(c5ccccn5)C5CCCC5)cc34)cc2)CC1 (centres unmarked) [Example A208, N-(cyclopentyl(pyridin-2-yl)methyl)-3-(4-((1-methylpiperidin-4-yl)oxy)phenyl)-1H-indazole-5-carboxamide] |
| ≤ 5 µM | ≤ 5 µM | ≤ 5 µM | O=C(NC(c1ccccn1)C1CC1)c1ccc2[nH]nc(-c3ccc(OC4CN(C5COC5)C4)cc3)c2c1 (centres unmarked) [Example A209, N-(cyclopropyl(pyridin-2-yl)methyl)-3-(4-((1-(oxetan-3-yl)azetidin-3-yl)oxy)phenyl)-1H-indazole-5-carboxamide] |
| ≤ 5 µM | ≤ 5 µM | ≤ 5 µM | CN1CCC(Oc2ccc(-c3n[nH]c4ccc(C(=O)NC(c5ccccn5)C5CCC5)cc34)cc2)CC1 (centres unmarked) [Example A210] |
| ≤ 5 µM | ≤ 5 µM | ≤ 5 µM | O=CN1CCC(Oc2ccc(-c3n[nH]c4ccc(C(=O)N[C@@H](c5ncccc5Cl)C5CC5)cc34)cc2)CC1 [Example A211, (R)—N-((3-chloropyridin-2-yl)(cyclopropyl)methyl)-3-(4-((1-formylpiperidin-4-yl)oxy)phenyl)-1H-indazole-5-carboxamide] |
|  | ≤ 5 µM | ≤ 5 µM | O=C(N[C@@H](c1ncccc1Cl)C1CC1)c1ccc2[nH]nc(-c3ccc(OC4CCN(C5COC5)CC4)cc3)c2c1 [Example A215, (R)—N-((3-chloropyridin-2-yl)(cyclopropyl)methyl)-3-(4-((1-(oxetan-3-yl)piperidin-4-yl)oxy)phenyl)-1H-indazole-5-carboxamide] |
|  | ≤ 5 µM | ≤ 5 µM | O=C(N[C@H](c1ncccc1Cl)C1CC1)c1ccc2[nH]nc(-c3ccc(OC4CCN(C5COC5)CC4)cc3)c2c1 [Example A216, (S)—N-((3-chloropyridin-2-yl)(cyclopropyl)methyl)-3-(4-((1-(oxetan-3-yl)piperidin-4-yl)oxy)phenyl)-1H-indazole-5-carboxamide] |
